In publication PMC4929566, “The metabolome of [2-^14C](−)-epicatechin in humans: implications for the assessment of efficacy, safety, and mechanisms of action of polyphenolic bioactives” (Scientific Reports, 2016):
“And” between values parts separate entries of the source, which are not always exact repeats. Equal entries are not always repeated.

Columns and labels:
[1] = SREM profile in plasma after intragastric 14C-EC, rat; assay type: in vivo, Sprague-Dawley rats; conditions: 30 min after 2 mg/kg BW intragastric 14C-EC
Description: (§1) To assess the profile of SREMs in rodents, Sprague-Dawley rats (male, 9–10 week old, 270 ± 16 g of BW) and C57BL/6 mice (20 ± 1 g) were administered by gavage 2 mg/kg BW of ^14C-EC (corresponding to ≈10.6 μCi/rat and 6.7 μCi/mouse). Blood samples were collected 30 min after administration. Plasma was obtained by centrifugation at 4 °C for 15 min at 1800xg, separated in aliquots and analyzed by HPLC as described previously[18] with an on-line radioactivity detector (Radiomatic 610TR Flow System Analyzer, PerkinElmer, Inc., Waltham, Mass).

[2] = SREM profile in plasma after intragastric 14C-EC, mouse; assay type: in vivo, C57BL/6 mice; conditions: 30 min after 2 mg/kg BW intragastric 14C-EC
Description: as §1

[3] = Metabolite profiling and quantification in urine (HPLC-MS2 with on-line radioactivity detector); assay type: in vivo, humans; conditions: human
Description: (§2) The study was a single-center, open-label, and non-randomized study with two distinct elements: a run-in phase to establish a more defined dietary background of dietary flavanols and procyanidins and the subsequent ^14C-EC ADME study (Fig. 1B). Participants (n = 12) were enrolled in the run-in phase (day –17 to day –4) and asked to supplement their daily diet for 14 days with a commercially available flavanol-containing cocoa-based drink (250 mg cocoa flavanols; 40 mg of EC). This was followed by a 4-day period (day –4 to 0) of a low-flavanol diet. One day (study day -1) prior to the initialization of the ^14C-EC ADME study, all eligible participants were accommodated under controlled conditions at a metabolic research facility (Covance Clinical Pharmacology Inc., Wisconsin) until completion of the study. Based on the compliance of the first part of the study, 8 participants were selected to participate in the ^14C-EC ADME study. During the ^14C-EC ADME study (Fig. 1B.), volunteers received a low-flavanol, standardized high-fiber diet, and were encouraged to maintain an adequate level of hydration (water ad libitum). Volunteers were asked to fast for 8 h before the initiation of the study and for at least 4 h after the intake of the ^14C-EC test drink (water ad libitum). Venous blood samples were taken using Vacutainer collection tubes, containing potassium EDTA at 0 h (just prior to ^14C-EC ingestion), and at 0.25, 0.5, 1, 1.5, 2, 2.5, 3, 4, 6, 8, 10, 12, 16, 24, 36, and 48 h after test drink consumption. Plasma was obtained by whole blood centrifugation at 2000 × g for 15 min at 5 °C, separated into aliquots and stored at −80 °C until analysis. All urine and feces from the time just prior to the consumption of the test drink were collected at different time intervals for radioactivity and metabolite profiling. Clinical parameters and laboratory evaluations of participants were assessed at screening, on study day –1, and after completing the study, as detailed in Supplementary Methods.
Samples were processed as described previously[18] and analyzed by HPLC-MS^2 in conjunction with an on-line HPLC-radioactivity monitor as described in SI Materials and Methods. Identification of metabolites involved comparing the retention time with authentic standards and MS^2 fragmentation patterns (Supplementary Methods). Quantification of metabolites in urine was based on HPLC radioactivity peak area (limit of quantification: 10^3 dpm). Due to the low levels of radioactivity, quantification in plasma was based on targeted HPLC-MS^2 using standard curves obtained with authentic standards (Supplementary Methods).
HPLC-MS identifications of radiolabeled [2-14C](−)-epicatechin metabolites in urine Urine was analyzed with radioactivity and mass spectrometry (MS) detection using a 250 mm x 4.6 mm i.d. 5 µm Luna Phenyl-Hexyl column (Phenomenex, Macclesfield, UK) […]
formic acid. Metabolite identification was performed by 1) co-chromatography of metabolites with reference compounds and a comparison of their MS fragmentation patterns 2, 2) by comparing m/z fragmentation patterns with earlier in-house observed […]
patterns to databases of metabolites reported in earlier polyphenol feeding studies5-7.
Supplementary Table S2, which also provides information on the MSI MI (Metabolite Standards Initiative – Metabolites Identification) level, a confidence level for identification where level 1 stands for fully elucidated (i.e., by comparison with a standard) and level 2 for a well characterized, but not yet fully structurally elucidated 8

[4] = Adverse events and clinical/laboratory evaluation in the 14C-EC ADME study; assay type: in vivo, humans; conditions: human
Description: as §2, with “Methods. […]” for “Methods.”

Oc1cc(O)c2c(c1)O[C@H](c1ccc(O)c(O)c1)[C@H](O)C2 [^14C-EC, [2-^14C](−)-epicatechin]
Detection in plasma [1]: No unmetabolized EC and sulfated SREMs were detected
Detection in plasma [2]: No unmetabolized EC was detected
Ingested 14C-EC absorbed via the colon / lower intestine ([3]; from urinary RFM excretion): ≈ 70% and 70%
Ingested 14C-EC absorbed from the small intestine ([3]; from urinary SREM excretion): 20%
Severity of reported adverse events [4]: all reported adverse events were mild in severity
Number of adverse events reported ([4]; reported by 3 different participants, none related to study treatment): 6
Adverse events related to the study treatment ([4]; single oral 60 mg, 300 μCi): No adverse events related to the study treatment were recorded
Clinical changes in laboratory evaluations, physical examinations and 12-lead electrocardiograms ([4]; single oral 60 mg, 300 μCi): no significant clinical changes
